Reference: the supplement of paper PMC13207355

Legend:
Conditions in all cases: exposure time: 72 h
E21 [1] = patient-derived glioblastoma stem cells of mesenchymal subtype; test: phenotypic distance (Euclidean, principal components) from DMSO controls (arbitrary units); higher = stronger morphological change
E28 [2] = patient-derived glioblastoma stem cells of classical subtype; test: as above
E34 [3] = patient-derived glioblastoma stem cells of proneural subtype; test: as above
FT3469 [4] = normal neural stem cell line; test: as above
E13 [5] = patient-derived glioblastoma stem cells of classical subtype; test: as above
E57 [6] = patient-derived glioblastoma stem cells of mesenchymal subtype; test: as above
E21 [7] = test: surviving fraction (nuclei count normalised to DMSO); higher = more cells surviving (less toxic)
E28 [8] = test: as above
E34 [9] = test: as above
FT3469 [10] = test: as above
E13 [11] = test: as above
E57 [12] = test: as above
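Wherever phenotypic distance (Euclidean, principal components) from DMSO controls is given: cell Painting imaging in 384-well plates, CellProfiler features reduced to at least 20 principal components, Euclidean distance versus same-plate DMSO vehicle wells (0.1% v/v), median over six images per well.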
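Wherever surviving fraction (nuclei count normalised to DMSO) is given: nuclei counted by high-content imaging of Hoechst-stained cells in laminin-coated 384-well plates, relative to 0.1% DMSO vehicle wells, with staurosporine as cell-death control.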

O=C(/C=C/c1cccnc1)NCCCCC1CCN(C(=O)c2ccccc2)CC1 [Daporinad]
Conditions | phenotypic distance | surviving fraction
E13 [5], 4.1 nM | 1.28 | –
E13 [5], 12.3 nM | 2.03 | –
E13 [5], 37 nM | 2.19 | –
E13 [5], 111.1 nM | 2.19 | –
E13 [5], 333.3 nM | 2.17 | –
E13 [5], 1000 nM | 2.27 | –
E13 [5], 3000 nM | 2.04 | –
E13 [11], 4.1 nM | – | 0.897
E13 [11], 12.3 nM | – | 0.759
E13 [11], 37 nM | – | 0.712
E13 [11], 111.1 nM | – | 0.732
E13 [11], 333.3 nM | – | 0.779
E13 [11], 1000 nM | – | 0.738
E13 [11], 3000 nM | – | 0.728
E21 [1], 4.1 nM | 0.674 | –
E21 [1], 12.3 nM | 0.879 | –
E21 [1], 37 nM | 1.12 | –
E21 [1], 111.1 nM | 1.73 | –
E21 [1], 333.3 nM | 2.59 | –
E21 [1], 1000 nM | 2.69 | –
E21 [1], 3000 nM | 2.46 | –
E21 [7], 4.1 nM | – | 0.918
E21 [7], 12.3 nM | – | 0.977
E21 [7], 37 nM | – | 1.06
E21 [7], 111.1 nM | – | 0.924
E21 [7], 333.3 nM | – | 0.916
E21 [7], 1000 nM | – | 0.916
E21 [7], 3000 nM | – | 0.873
E28 [2], 4.1 nM | 3.04 | –
E28 [2], 12.3 nM | 3.29 | –
E28 [2], 37 nM | 3.514 | –
E28 [2], 111.1 nM | 3.26 | –
E28 [2], 333.3 nM | 3.25 | –
E28 [2], 1000 nM | 3.51 | –
E28 [2], 3000 nM | 3.47 | –
E28 [8], 4.1 nM | – | 0.436
E28 [8], 12.3 nM | – | 0.459
E28 [8], 37 nM | – | 0.4196
E28 [8], 111.1 nM | – | 0.415
E28 [8], 333.3 nM | – | 0.423
E28 [8], 1000 nM | – | 0.351
E28 [8], 3000 nM | – | 0.379
E34 [3], 4.1 nM | 1.25 | –
E34 [3], 12.3 nM | 1.37 | –
E34 [3], 37 nM | 1.45 | –
E34 [3], 111.1 nM | 1.6 | –
E34 [3], 333.3 nM | 1.35 | –
E34 [3], 1000 nM | 2.32 | –
E34 [3], 3000 nM | 1.37 | –
E34 [9], 4.1 nM | – | 1.02
E34 [9], 12.3 nM | – | 0.865
E34 [9], 37 nM | – | 0.916
E34 [9], 111.1 nM | – | 0.851
E34 [9], 333.3 nM | – | 0.922
E34 [9], 1000 nM | – | 0.8551
E34 [9], 3000 nM | – | 1.04
E57 [6], 4.1 nM | 2.92 | –
E57 [6], 12.3 nM | 3.204 | –
E57 [6], 37 nM | 3.213 | –
E57 [6], 111.1 nM | 3.31 | –
E57 [6], 333.3 nM | 3.19 | –
E57 [6], 1000 nM | 3.44 | –
E57 [6], 3000 nM | 3.491 | –
E57 [12], 4.1 nM | – | 0.731
E57 [12], 12.3 nM | – | 0.677
E57 [12], 37 nM | – | 0.693
E57 [12], 111.1 nM | – | 0.71
E57 [12], 333.3 nM | – | 0.668
E57 [12], 1000 nM | – | 0.562
E57 [12], 3000 nM | – | 0.621
FT3469 [4], 4.1 nM | 2.48 | –
FT3469 [4], 12.3 nM | 2 | –
FT3469 [4], 37 nM | 2.62 | –
FT3469 [4], 111.1 nM | 2.52 | –
FT3469 [4], 333.3 nM | 2.17 | –
FT3469 [4], 1000 nM | 2.56 | –
FT3469 [4], 3000 nM | 2.25 | –
FT3469 [10], 4.1 nM | – | 0.8405
FT3469 [10], 12.3 nM | – | 0.956
FT3469 [10], 37 nM | – | 0.831
FT3469 [10], 111.1 nM | – | 0.93
FT3469 [10], 333.3 nM | – | 0.899
FT3469 [10], 1000 nM | – | 0.892
FT3469 [10], 3000 nM | – | 0.975

CN1CCC(NC(=O)c2cc(-c3c(O)cc(O)cc3Oc3ccc([N+](=O)[O-])cc3)on2)CC1 [NMS-E973]
Conditions | phenotypic distance | surviving fraction
E13 [5], 4.1 nM | 0.577 | –
E13 [5], 12.3 nM | 0.562 | –
E13 [5], 37 nM | 0.639 | –
E13 [5], 111.1 nM | 1.31 | –
E13 [5], 333.3 nM | 4.489 | –
E13 [5], 1000 nM | 5.34 | –
E13 [5], 3000 nM | 5.62 | –
E13 [11], 4.1 nM | – | 0.964
E13 [11], 12.3 nM | – | 0.953
E13 [11], 37 nM | – | 0.944
E13 [11], 111.1 nM | – | 0.93
E13 [11], 333.3 nM | – | 0.219
E13 [11], 1000 nM | – | 0.192
E13 [11], 3000 nM | – | 0.21
E21 [1], 4.1 nM | 0.751 | –
E21 [1], 12.3 nM | 0.626 | –
E21 [1], 37 nM | 0.843 | –
E21 [1], 111.1 nM | 1.82 | –
E21 [1], 333.3 nM | 4.147 | –
E21 [1], 1000 nM | 5.3 | –
E21 [1], 3000 nM | 5.82 | –
E21 [7], 4.1 nM | – | 0.891
E21 [7], 12.3 nM | – | 0.959
E21 [7], 37 nM | – | 0.926
E21 [7], 111.1 nM | – | 0.817
E21 [7], 333.3 nM | – | 0.416
E21 [7], 1000 nM | – | 0.257
E21 [7], 3000 nM | – | 0.116
E28 [2], 4.1 nM | 0.607 | –
E28 [2], 12.3 nM | 0.671 | –
E28 [2], 37 nM | 0.573 | –
E28 [2], 111.1 nM | 1.19 | –
E28 [2], 333.3 nM | 2.09 | –
E28 [2], 1000 nM | 5.08 | –
E28 [2], 3000 nM | 6.81 | –
E28 [8], 4.1 nM | – | 1.01
E28 [8], 12.3 nM | – | 0.913
E28 [8], 37 nM | – | 0.909
E28 [8], 111.1 nM | – | 0.657
E28 [8], 333.3 nM | – | 0.31
E28 [8], 1000 nM | – | 0.0561
E28 [8], 3000 nM | – | 0.0288
E34 [3], 4.1 nM | 0.575 | –
E34 [3], 12.3 nM | 0.675 | –
E34 [3], 37 nM | 0.615 | –
E34 [3], 111.1 nM | 1.12 | –
E34 [3], 333.3 nM | 1.98 | –
E34 [3], 1000 nM | 3.12 | –
E34 [3], 3000 nM | 5.65 | –
E34 [9], 4.1 nM | – | 0.907
E34 [9], 12.3 nM | – | 0.921
E34 [9], 37 nM | – | 0.855
E34 [9], 111.1 nM | – | 0.804
E34 [9], 333.3 nM | – | 0.45
E34 [9], 1000 nM | – | 0.289
E34 [9], 3000 nM | – | 0.0598
E57 [6], 4.1 nM | 0.456 | –
E57 [6], 12.3 nM | 0.414 | –
E57 [6], 37 nM | 0.335 | –
E57 [6], 111.1 nM | 1.07 | –
E57 [6], 333.3 nM | 2.57 | –
E57 [6], 1000 nM | 3.42 | –
E57 [6], 3000 nM | 4.94 | –
E57 [12], 4.1 nM | – | 0.941
E57 [12], 12.3 nM | – | 1.01
E57 [12], 37 nM | – | 0.9484
E57 [12], 111.1 nM | – | 1.01
E57 [12], 333.3 nM | – | 0.373
E57 [12], 1000 nM | – | 0.0919
E57 [12], 3000 nM | – | 0.0144
FT3469 [4], 4.1 nM | 2.07 | –
FT3469 [4], 12.3 nM | 1.21 | –
FT3469 [4], 37 nM | 1.04 | –
FT3469 [4], 111.1 nM | 1.74 | –
FT3469 [4], 333.3 nM | 1.89 | –
FT3469 [4], 1000 nM | 2.79 | –
FT3469 [4], 3000 nM | 3.7 | –
FT3469 [10], 4.1 nM | – | 0.918
FT3469 [10], 12.3 nM | – | 0.951
FT3469 [10], 37 nM | – | 0.975
FT3469 [10], 111.1 nM | – | 0.798
FT3469 [10], 333.3 nM | – | 0.677
FT3469 [10], 1000 nM | – | 0.4901
FT3469 [10], 3000 nM | – | 0.4
